Consider 57 compounds from PMC8041284, “Tunable Methacrylamides for Covalent Ligand Directed Release Chemistry” (Journal of the American Chemical Society, 2021).

In this test the target is BTK (Homo sapiens, UniProt Q06187). Description: biochemical.
Where [1] appears, read: read-out: BTK inhibition (%), 0.75 uM BTK, […] probe 3l, 15 min preincubation.

SMILES strings stand for the structures. Like-named read-outs stand apart in the source and are kept apart here. *1 amine or outer side, *2 acyl side, *3 side chain or, on linkers, in order; H or OH if unused. Where a SMILES comes first, the peptide text is derived from it. Bridges are numbered along the chain shown (N, C = ends). [ ]: non-standard residue; d: D form. The star is where a group is joined. pTerphenylCO(4''-OnC5H11) = CCCCCOc1ccc(-c2ccc(-c3ccc(C(=O)*)cc3)cc2)cc1; Orn(4R-OH,5R-OH) = O=C([C@H](C[C@@H](O)[C@@H](O)N[*:3])N[*:1])[*:2]; hTyr(3S-OH,4S-OH) = N[C@H](C(=O)O)[C@H](O)[C@@H](O)c1ccc(O)cc1; Pro(3S-OH,4S-Me) = C[C@H]1CN[C@H](C(=O)O)[C@H]1O; Hyp = O=C(O)[C@@H]1C[C@@H](O)CN1

BTK, sequence (Q06187 402-655 limits assumed): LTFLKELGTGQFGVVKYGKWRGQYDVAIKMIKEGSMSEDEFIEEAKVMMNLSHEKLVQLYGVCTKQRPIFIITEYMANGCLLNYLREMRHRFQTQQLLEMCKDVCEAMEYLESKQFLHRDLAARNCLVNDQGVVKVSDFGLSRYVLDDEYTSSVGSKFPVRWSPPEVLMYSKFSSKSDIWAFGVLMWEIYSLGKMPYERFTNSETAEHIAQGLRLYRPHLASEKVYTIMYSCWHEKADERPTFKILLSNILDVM

Turning to `N#C/C(=C1/SC[C@@H](c2ccc(Cl)cc2Cl)S1)n1ccnc1` [PCM-0214788], under setting [1], the inhibition at 10 µM was determined as 3.9%.
Regarding `CC(CNC(=O)c1cccnc1)NC(=O)c1cccnc1` (stereo not drawn) [PCM-0214789], the inhibition at 10 µM under setting [1] is -8.6%.
In the case of `CC1(C)CCC(C)(C)c2cc(NC(=O)c3ccc(C(=O)O)cc3)ccc21` [PCM-0214790], the inhibition at 10 µM under setting [1] is -18.7%.
As for `CCC[C@H](NC(=O)[C@@H]1[C@H]2CCC[C@H]2CN1C(=O)[C@@H](NC(=O)[C@@H](NC(=O)c1cnccn1)C1CCCCC1)C(C)(C)C)C(=O)C(=O)NC1CC1` [PCM-0214791], the inhibition at 10 µM under setting [1] is -3.1%.
On the same count and under the same terms, the figure for `CCC1=C[C@@H]2CN(C1)Cc1c([nH]c3ccccc13)[C@@](C(=O)OC)(c1cc3c(cc1OC)N(C)[C@H]1[C@@](O)(C(=O)OC)[C@H](OC(C)=O)[C@]4(CC)C=CCN5CC[C@]31[C@@H]54)C2` [PCM-0214792] is 14%.
Regarding `CN(C)CCCCC(=O)Nc1ccc(NC(=S)NC(=O)c2ccc(C(C)(C)C)cc2)cc1` [PCM-0214793], the inhibition at 10 µM under setting [1] turned out to be 7%.
On the same count and under the same terms, the figure for `CC[C@]1(O)C[C@H]2CN(CCc3c([nH]c4ccccc34)[C@@](C(=O)OC)(c3cc4c(cc3OC)N(C=O)[C@H]3[C@@](O)(C(=O)OC)[C@H](OC(C)=O)[C@]5(CC)C=CCN6CC[C@]43[C@@H]65)C2)C1` [PCM-0214794] is 9%; for `COc1cc(F)c(F)c(Nc2ccc(I)cc2F)c1NS(=O)(=O)C1(C[C@H](O)CO)CC1` [PCM-0214795] it is 36.6%; for `OCCOc1ccc(/C(=C(/CCCl)c2ccccc2)c2ccccc2)cc1` [PCM-0214796] it is 73.9%.
The same measure, in the same setting: the figure for `CCN(CC)CCOC(=O)c1ccc(N)cc1Cl` [PCM-0214797] is -1.6%; for `CCCCCOc1ccc(-c2ccc(-c3ccc(C(=O)N[C@H]4C[C@@H](O)[C@@H](O)NC(=O)[C@@H]5[C@@H](O)[C@@H](C)CN5C(=O)[C@H]([C@@H](C)O)NC(=O)[C@H]([C@H](O)[C@@H](O)c5ccc(O)cc5)NC(=O)[C@@H]5C[C@@H](O)CN5C(=O)[C@H]([C@@H](C)O)NC4=O)cc3)cc2)cc1` [PCM-0214798] ({pTerphenylCO(4''-OnC5H11)}-[Orn(4R-OH,5R-OH)]T[Hyp][hTyr(3S-OH,4S-OH)]T[Pro(3S-OH,4S-Me)]; lactam 1-C) it is 122%; for `CCCN(CCc1cccs1)[C@H]1CCc2c(O)cccc2C1` [PCM-0214799] it is 14.8%.
`Cc1ccc(Cl)c(Nc2ccccc2C(=O)O)c1Cl` [PCM-0214800]: under setting [1], the inhibition at 10 µM is 9.7%.
Still for that read-out and setting: the figure for `O[C@@H](c1cc(C(F)(F)F)nc2c(C(F)(F)F)cccc12)[C@H]1CCCCN1` [PCM-0214801] is -4.7%; for `O=C(O)CCCN1CCC(O[C@@H](c2ccc(Cl)cc2)c2ccccn2)CC1` [PCM-0214802] it is -17.9%.
On the same count and under the same terms, the figure for `C[C@@H](O[C@H]1OCCN(Cc2nn(P(=O)(O)O)c(=O)[nH]2)[C@H]1c1ccc(F)cc1)c1cc(C(F)(F)F)cc(C(F)(F)F)c1` [PCM-0214804] is 10.1%.
Still for that read-out and setting: next, `C=CC[C@@H]1/C=C(\C)C[C@H](C)C[C@H](OC)[C@H]2O[C@@](O)(C(=O)C(=O)N3CCCC[C@H]3C(=O)O[C@H](/C(C)=C/[C@@H]3CC[C@@H](O)[C@H](OC)C3)[C@H](C)[C@@H](O)CC1=O)[C@H](C)C[C@@H]2OC` [PCM-0214806]: -2.8%.
Take `NCc1c[nH]c(=S)n1[C@@H]1CCc2c(F)cc(F)cc2C1` [PCM-0214808]: the inhibition at 10 µM under setting [1] is 4.7%.
On the same count and under the same terms, next, `CCCCN1CCCC[C@H]1C(=O)Nc1c(C)cccc1C` [PCM-0214809]: -25.7%.
As for `OC[C@H]1O[C@@H](O[C@@H]2[C@@H](CO)O[C@](O)(CO)[C@H]2O)[C@H](O)[C@@H](O)[C@H]1O` [PCM-0214810], the inhibition at 10 µM under setting [1] was 13.2%.
Still for that read-out and setting: next, `N[C@@H](CC(=O)N1CCn2c(nnc2C(F)(F)F)C1)Cc1cc(F)c(F)cc1F` [PCM-0214812]: -1.6%.
Still for that read-out and setting: the figure for `CC(C)(CO)[C@@H](O)C(=O)NCCC(=O)O` [PCM-0214814] is 7%; for `CC(=O)NC(CC(C)C)C(=O)O` (stereo not drawn) [PCM-0214817] it is 1.6%; for `CC1(C)[C@@H]2CC[C@@]1(C)C(=O)C2` [PCM-0214819] it is 1.6%.
Still for that read-out and setting: next, `CC12CCC(CC1=O)C2(C)C` (stereo not drawn) [PCM-0214819]: -3.9%.
Consider `CC(=O)OCC1=C(C(=O)O)N2C(=O)[C@@H](NC(=O)Cc3cccs3)[C@H]2SC1` [PCM-0214820], for which the inhibition at 10 µM under setting [1] was -12.5%.
As for `CN1CCC(=C2c3ccccc3CCn3c(C=O)cnc32)CC1` [PCM-0214821], under setting [1], the inhibition at 10 µM is 2.1%.
As to `O=c1ccc2ccc(OCCCCN3CCN(c4cccc5sccc45)CC3)cc2[nH]1` [PCM-0214822], the inhibition at 10 µM under setting [1] worked out at 0.8%.
Consider `O=C(O)CSc1nnc(Br)n1-c1ccc(C2CC2)c2ccccc12` [PCM-0214823], for which the inhibition at 10 µM under setting [1] is -21.8%.
On the same count and under the same terms, the figure for `C#C[C@]1(O)CC[C@H]2[C@@H]3CCC4=CCCC[C@@H]4[C@H]3C(=C)C[C@@]21CC` [PCM-0214824] is 27.2%; for `COc1cc(O)c(C(=O)c2ccccc2)cc1S(=O)(=O)O` [PCM-0214826] it is -1.6%.
As to `CO/N=C(\C(=O)N[C@@H]1C(=O)N2C(C(=O)O)=C(CSc3nnnn3C)CS[C@H]12)c1csc(N)n1` [PCM-0214827], the inhibition at 10 µM under setting [1] came to 8.6%.
Same read-out and setting: the figure for `Cn1nnc(-c2ccc(-c3ccc(N4C[C@H](COP(=O)(O)O)OC4=O)cc3F)cn2)n1` [PCM-0214830] is 13.2%.
Consider `CCCCCC(=O)O[C@]1(C(C)=O)CC[C@H]2[C@@H]3CCC4=CC(=O)CC[C@]4(C)[C@H]3CC[C@@]21C` [PCM-0214832], for which the inhibition at 10 µM under setting [1] was -23.3%.
As to `Cc1ccsc1C(=CCCN1CCC[C@@H](C(=O)O)C1)c1sccc1C` [PCM-0214833], under setting [1], the inhibition at 10 µM is -7%.
Same read-out and setting: the figure for `CC(C)C(=O)OCC(=O)[C@@]12O[C@H](C3CCCCC3)O[C@@H]1C[C@H]1[C@@H]3CCC4=CC(=O)C=C[C@]4(C)[C@H]3[C@@H](O)C[C@@]12C` [PCM-0214834] is -6.9%; for `NC(=O)[C@@H]1CCCN1C(=O)[C@H](Cc1cnc[nH]1)NC(=O)[C@@H]1CCC(=O)N1` [PCM-0214836] it is -5.4%; for `COCCCOc1ccnc(C[S+]([O-])c2nc3ccccc3[nH]2)c1C` (stereo not drawn) [PCM-0214837] it is -10.1%.
The same measure, in the same setting: next, `CC(=O)O[C@H]1C[C@@]2(C)[C@@H](C[C@@H](O)[C@H]3[C@@]4(C)CC[C@@H](O)[C@@H](C)[C@@H]4CC[C@@]32C)/C1=C(\CCC=C(C)C)C(=O)O` [PCM-0214838]: 6.2%; `C[C@H](CCC(=O)O)[C@H]1CC[C@H]2[C@@H]3CC[C@@H]4C[C@H](O)CC[C@]4(C)[C@H]3C[C@H](O)[C@]12C` [PCM-0214839]: 11.7%.
`Cc1cc(N2CCN([C@@H]3CN[C@H](C(=O)N4CCSC4)C3)CC2)n(-c2ccccc2)n1` [PCM-0214840]: for the setting “read-out: BTK inhibition (%)”, the inhibition at 10 µM was determined as 0.8%.
With `CN[C@@H](C)C(=O)N[C@H]1CN(C(=O)CC(C)C)CC[C@H]2CC[C@@H](C(=O)NC(c3ccccc3)c3ccccc3)N2C1=O` [PCM-0214841], the inhibition at 10 µM under setting [1] is -9.3%.
In the case of `C#C[C@]1(O)CC[C@H]2[C@@H]3CCC4=CC(=O)CC[C@@H]4[C@H]3C(=C)C[C@@]21CC` [PCM-0214842], the inhibition at 10 µM under setting [1] was determined as 3.1%.
As to `C/C=C(\C)C(=O)O[C@H]1[C@H](OC(C)=O)[C@@]2(CO)C(CC1(C)C)C1=CCC3[C@@]4(C)CCC(O[C@@H]5O[C@H](C(=O)O)[C@@H](O[C@@H]6O[C@H](CO)[C@@H](O)[C@H](O)[C@H]6O)[C@H](O)[C@H]5O[C@@H]5O[C@H](CO)[C@@H](O)[C@H](O)[C@H]5O)[C@](C)(CO)C4CC[C@@]3(C)[C@]1(C)C[C@H]2O` (stereo partly drawn) [PCM-0214843], under setting [1], the inhibition at 10 µM amounted to 3.4%.
For the compound `Cn1c(COP(=O)(NCCBr)NCCBr)cnc1[N+](=O)[O-]` [PCM-0214844], the inhibition at 10 µM (read-out: BTK inhibition (%)) was -4.7%.
`O=C1Nc2ccccc2C1=O` [PCM-0214846]: the inhibition at 10 µM under setting [1] is 11.7%.
Still for that read-out and setting: next, `CCCCCCCCCCCC(=O)O` [PCM-0214847]: -69.3%; `O=CC[C@@H](O)[C@H](O)[C@H](O)CO` [PCM-0214849]: 5.4%.
Take `O=C(/C=C/c1ccc(O)c2c1[C@H](C(=O)O[C@H](Cc1ccc(O)c(O)c1)C(=O)O)[C@@H](c1ccc(O)c(O)c1)O2)O[C@H](Cc1ccc(O)c(O)c1)C(=O)O` [PCM-0214854]: the inhibition at 10 µM under setting [1] was -34.2%.
As to `CC(C)=CCC[C@](C)(O)[C@H]1CC[C@]2(C)[C@@H]1[C@H](O)C[C@@H]1[C@@]3(C)CC[C@H](O)C(C)(C)[C@@H]3CC[C@]12C` [PCM-0214857], under setting [1], the inhibition at 10 µM was determined as 21%.
On the same count and under the same terms, next, `O=c1c(-c2ccc(O)cc2)coc2cc(O[C@@H]3O[C@H](CO)[C@@H](O)[C@H](O)[C@H]3O)cc(O)c12` [PCM-0214858]: -9.3%; `C=C1C[C@@]23CC[C@H]4[C@@](C)(CCC[C@@]4(C)C(=O)O[C@@H]4O[C@H](CO)[C@@H](O)[C@H](O)[C@H]4O)[C@@H]2CC[C@]1(O[C@@H]1O[C@H](CO)[C@@H](O)[C@H](O[C@@H]2O[C@H](CO)[C@@H](O)[C@H](O)[C@H]2O)[C@H]1O[C@@H]1O[C@@H](C)[C@H](O)[C@@H](O)[C@H]1O)C3` [PCM-0214859]: -14.8%.
For `CCOC(=O)[C@H](CCc1ccccc1)N[C@@H](C)C(=O)N1C(=O)N(C)C[C@H]1C(=O)O` [PCM-0214860], under setting [1], the inhibition at 10 µM was 7%.
The same measure, in the same setting: next, `N[C@@H](C(=O)N[C@@H]1C(=O)N2C(C(=O)O)=C(Cl)CS[C@H]12)c1ccccc1` [PCM-0214861]: -13.2%; `C[C@H](CC(=O)C[C@@H](C)[C@H]1C[C@H](O)[C@@]2(C)C3=C(C(=O)C[C@]12C)[C@@]1(C)CCC(=O)C(C)(C)[C@@H]1C[C@@H]3O)C(=O)O` [PCM-0214862]: -6.2%; `Cc1ccc(NC(=O)c2ccc(CN3CC[C@H](N(C)C)C3)c(C(F)(F)F)c2)cc1Nc1nccc(-c2cncnc2)n1` [PCM-0214863]: 36.6%.
`C[C@]12CCC(=O)C[C@@H]1CC[C@@H]1[C@@H]2CC[C@]2(C)[C@@H](O)CC[C@@H]12` [PCM-0214865]: the inhibition at 10 µM (read-out: BTK inhibition (%)) is -21%.

In general, inhibition refers to the drop in the measured response relative to a control, in per cent.
